Key:
Sprague Dawley rats = experiment: 28-day intravenous toxicity study in rats, liver histopathology (subacute hepatitis); assay type: in vivo
Procedure: Potential toxicity of Compound 1-HCl was evaluated by intravenous administration to Sprague Dawley rats for 28 days. This study was conducted in compliance with FDA Good Laboratory Practice Standards, 21 CFR 58 and in accordance with OECD Principles of Good Laboratory Practice.
One hundred twelve Sprague Dawley—HsD: SD rats were randomly divided into eight groups and treated with Compound 1 (“test article”) or vehicle, by intravenous administration via the lateral tail vein (slow bolus) (Table 1).
Animals in Groups 1-4 were subjected to a complete necropsy examination. Protocol-specified necropsy procedures included the recording of organ weights (adrenals, brain, hearts, kidneys, liver, testes, ovaries, spleen, thyroids, parathyroids), examination of the external body surface, examination of all orifices, and examination of the cranial, thoracic, and abdominal cavities and their contents. Post-fixation weights for the thyroids/parathyroids were recorded. The following protocol-specified tissues were collected at necropsy: animal identification (not evaluated), abnormalities (gross findings), adrenals, aorta, brain, cecum, cervix, colon, duodenum, epidiymides, esophagus, eye with optic nerve, femur with articular surface, heart, ileum, injection site, jejunum, kidneys, lacrimal glands (exorbital), larynx, liver, lung with mainstem bronchus, mammary gland, mandibular lymph nodes, mesenteric lymph nodes, ovaries, pancreas, pituitary, prostate, rectum, salivary glands, sciatic nerve, seminal vesicles, skeletal muscle (thigh), skin, spinal cord (cervical, midthoracis, lumbar), spleen, sternum with bone marrow, stomach, testes, thymus, thyroid/parathyroid, tongue, trachea, urinary bladder, uterus, and vagina.
On day 29, animals were weighed and sacrificed by CO2 inhalation. Protocol-specific tissues were preserved in 10% neutral buffered formalin (NBF). Protocol-requires tissues were embedded in paraffin, sectioned at approximately 5 microns, and processed to slides stained with hematoxylin and eosin (H&E). Histopathological evaluation was performed by a veterinary pathologist on all rats in Group 1 and Group 4 sacrificed on day 29, as well as for all early deaths. Livers for animals in Groups 2 and 3 were evaluated microscopically.

[1] = tested on: LPS induced TNF-alpha in monocytes; experiment: LPS induced TNF-alpha in monocytes (TNF alpha assay); assay type: cell-based; conditions: Monocyte; compound 10 uM; 5 ng/mL LPS; read-out: Mean Percent Inhibition of TNF-alpha using 5 ng/mL LPS
Procedure: This test is a standard methodology for assessing the anti-inflammatory activity of compounds. Table 1 provides Percent Inhibition of LPS induced TNF-alpha in monocytes data for 18 hydroxylamine compounds of the invention. Compounds at different concentrations (0, 1, 2.5 and 10 uM) were incubated with 100 ul freshly collected heparinized blood for 10 minutes. […] Following incubation with LPS, PBS was added (800 uL) and samples were spun for 10 minutes at 1500 g. TNFα protein concentrations were measured using R&D Systems high sensitivity ELISA kit. THP-1 cells (0.5×10^6 cells/mL) were incubated with the compounds (0, 1, 2.5 and 10 uM) for 3 hrs in humidified chamber, 37° C., 5% CO2, 2% FBS in RPMI medium. Cells were induced with 25 ng/mL LPS for another 3 hrs. Cells were collected and spun at 1500 g for 10 minutes. Supernatant was collected and analyzed for TNFα.

CC1(C)CC(OC(=O)C2CC2)CC(C)(C)N1O.Cl [Compound 1, 1-Hydroxy-4-cyclopropanecarbonyloxy-2,2,6,6-tetramethylpiperidine hydrochloride]
Subacute hepatic inflammation (hepatitis) incidence, number of rats with minimal subacute hepatitis (Sprague Dawley rats; Group 2, 1.0 mg/kg/day i.v. 28 days, female rats (8 per group), vehicle Group 1 females 6/8): one | Subacute hepatic inflammation (hepatitis) incidence (Sprague Dawley rats; Group 2, 1.0 mg/kg/day i.v. 28 days, male rats (8 per group), vehicle Group 1 males 8/8): not present in any | Subacute hepatic inflammation (hepatitis) incidence (Sprague Dawley rats; Group 3, 2.5 mg/kg/day i.v. 28 days, female rats (8 per group), vehicle Group 1 females 6/8): not present in any | Subacute hepatic inflammation (hepatitis) incidence, number of rats with minimal subacute hepatitis (Sprague Dawley rats; Group 3, 2.5 mg/kg/day i.v. 28 days, male rats (8 per group), vehicle Group 1 males 8/8): one | Subacute hepatic inflammation (hepatitis) incidence (Sprague Dawley rats; Group 4, 7.5 mg/kg/day i.v. 28 days, female rats (8 per group), vehicle Group 1 females 6/8): not present in any | Subacute hepatic inflammation (hepatitis) incidence (Sprague Dawley rats; Group 4, 7.5 mg/kg/day i.v. 28 days, male rats (8 per group), vehicle Group 1 males 8/8): not present in any | Effect on background liver inflammation (idiopathic lesion) in treated rats (Sprague Dawley rats; Groups 2-4 (1.0-7.5 mg/kg/day i.v. 28 days), male and female rats): reduction in the incidence of this idiopathic lesion | inhibition at 10 µM [1]: 68 ± 6%
